This is an account of results in publication doi:10.1101/2023.11.15.567208 (bioRxiv, 2024).

Entries after “also recorded” stand apart in the source; their conditions may differ.

Assay [1] is described as follows: Acetone evoked cold response. In kind it is in vivo, mouse. The settings on record: acetone droplet on paw; time licking in 60 s; WT n=12, DKO n=12. The method, then: Mice were habituated on a plexiglass floor stand for 1 hour. Mice were videotaped as acetone was applied to the plantar region of their hind paw. Acetone was applied using a custom-made applicator, consisting of a 1ml syringe and plastic well where acetone was pushed out to generate a droplet for applying to the paw. Behavior was scored post-hoc by a blinded observer and the total amount of time spent licking the paw in a 60 second time interval was recorded. The experiment was repeated for a second trial and average scores were used.

Assay [2] in a line: Chloroquine-induced itch, scratching bouts. In kind it is in vivo, mouse. The settings on record: 20 μl of 25 μM chloroquine diphosphate intradermal, nape of neck; scratching bouts in 15 min; WT n=8, DKO n=11. The method, then: Hair from the nape of the mouse’s neck was removed 2–3 days prior to behavioral experiments using VEET hair removal cream and the area thoroughly washed and moisturizing cream applied. Mice were habituated to transparent acrylic chambers (10cm × 10cm × 13cm) 30 minutes prior to injection. Post habituation, a blinded investigator injected 20 μl of 25 μM Chloroquine diphosphate salt (Sigma-Aldrich: C6628) solution in 0.9% saline intradermally into the nape of the neck using a 31G insulin syringe. Videos were quantified by a separate blinded investigator with a scratching bout counted each time the mouse attended to the injected area with the hind paw after the paw was removed from the floor or mouth.

Assay [3] can be described thus: Hindpaw swelling / oedema, paw volume. The assay is classed as in vivo, mouse. The settings on record: for Swelling of the hindpaw: hindpaw of DKO mice compared with WT, observation on injection; for Paw oedema (paw volume): intraplantar injection, volume normalized to uninjected paw, capsaicin WT n=9, DKO n=7, AITC n=8 each. The method, then: (§1) Mice were anesthetized using isoflurane. 200 μl of Evans Blue dye was injected into the mouse’s tail vein. 15 mins later, one hindpaw was injected with an algogen. After a further 30 mins, the volume of each paw was measured by displacement using a plethysmometer (Ugo Basile). Both paws were then cut at the ankle and placed in tubes in the oven at 55 °C for 24 hours to dry. 1 ml of formamide was then added to each paw and incubated for 4–6 days at 55 °C to extract the dye from the paw tissue. 50 μl samples of dye-infused formamide from each paw were then dispensed to a 96 well plate in duplicate, along with a range of Evans blue dilutions in formamide to generate a standard curve. The optical density of each sample was then measured using a plate-reader, and the concentration of Evans Blue per paw sample interpolated from the standard curve to generate an index of extravasation in that paw.

Assay [4] in a line: Inflammatory pain model, Hargreaves radiant heat. In kind it is in vivo, mouse. The conditions noted are these: PGE2 20 μl, 500 nM intraplantar. The method, then: The radiant heat stimulus was aimed for the centre of the plantar region of the mouse’s hind paw. The active intensity of the low stimulus was 40 intensity units, and of the high stimulus 55. The response latency was recorded for 5 trials with 10-minute breaks in between each trial.
CFA and PGE2 was purchased from Sigma. 20 μl of CFA was injected into the heel of the hind paw. PGE2 (20 μl, 500 nM) was injected into the plantar surface of the hindpaw, and behavior was assessed over the same time-frame that produces in vivo sensitization of nociceptor responses (up to 120 minutes). Inflammation-induced hypersensitivity was measured using the Hargreaves and the von Frey, as described above.

The conditions of assay [5]: 0.6% acetic acid, 10 μl per gram, intraperitoneal; writhes in 15 min starting 5 min after injection; WT n=9, DKO n=7. The method, then: Mice were habituated on a plexiglass stand for 1 hour. 0.6% of acetic acid was injected intraperitoneally at a dose of 10 μl per gram weight of the animal. Mice were videotaped for 20 minutes. The number of writhes was quantified post-hoc by a blinded observer during a 15-minute interval between 5 and 20 minutes after injection.

The target in assay [6] is T1, CGRP receptor (Calcrl and Ramp1) (Mus musculus, UniProt Q9R1W5+Q9WTJ5).
T1 construct: expressed in transfected cells; host or cells: HEK293; Calcrl/Gα15/GCaMP6s by PiggyBac transposase (puromycin), Ramp1 by pSBbi-Neo-cmv-TETo2-RAMP1 IRES-mTagBFP2-NLS (geneticin); doxycycline-induced
The assay is described as follows: Co-culture of DRG neurons with CGRP-sniffer cells, capsaicin-evoked CGRPα release. In kind it is cell-based. The conditions noted are these: capsaicin 10 μM, n=18 wells from 3 mice.

For assay [7], the target named is T2, Substance P receptor (NKR1) (Mus musculus, UniProt P30548).
T2 construct: T2A self-cleaving peptide remnant (from the polycistronic P2A-TACR1-T2A cassette) (C); expressed in transfected cells; host or cells: Flp-In T-REx HEK293 (Thermo Fisher Scientific, R78007), lentiviral transduction, hygromycin selection
The assay is described as follows: Co-culture of DRG neurons with Substance P-sniffer cells, capsaicin-evoked Substance P release. The assay is classed as cell-based. The conditions noted are these: capsaicin 10 μM, n=12 wells from 2 mice; for Substance P-sniffer GCaMP response, WT DRG: co-culture with WT (control) DRG neurons.

For assay [8], the system named is dorsal horn network activation. The assay is described as follows: Capsaicin-evoked dorsal horn Fos staining. In kind it is in vivo. The settings on record: capsaicin 0.3% into right hindpaw; WT n=5, DKO n=4; mean Fos puncta of 5 sections per mouse.
Assay [9] in a line: Plasma extravasation, Evans blue dye. In kind it is in vivo, mouse. The conditions noted are these: Evans blue optical density, normalized to uninjected paw; capsaicin WT n=9, DKO n=7; AITC n=8 each. The method, then: as §1
Assay [10] can be described thus: Chemical algogens, licking behavior after intraplantar injection. The assay is classed as in vivo, mouse. The conditions noted are these: 20 μl intraplantar, time licking in 5 min. The method, then: 0.3% capsaicin in 80% saline / 10% Tween-80 / 10% ethanol or 1% AITC in saline was injected into the plantar surface of the hind paw. The injected volume for both was 20 μl. Mice were video-taped for 5 minutes. A blinded observer scored the amount of time in seconds the mouse spent licking the injected paw in a 5-minute time period.

The conditions of assay [11]: ref MacDonald et al., 2021; cited from earlier work. The text has this:
Lastly, we investigated how dual peptide deletion affected the development of allodynia symptoms, where innocuous stimuli are perceived as painful, in two mouse models of neuropathic pain ([Jensen and Finnerup, 2014]).

Assay [12] can be described thus: Oxaliplatin cold allodynia, Cold Plate. The settings on record: one day after intraplantar oxaliplatin; Cold Plate 10 °C, 5 min; WT n=9, DKO n=6. In kind it is in vivo, mouse. From the text: The plate was set to the desired temperature. A camera set up with a mirror was used for better visibility of the mouse on the hot plate. A clear cylindrical tube was placed around the hot plate to ensure the mouse cannot escape. Once the hot plate reached the set temperature, the mouse was placed on the hot plate and the top of the cylinder was covered. At the cut-off time, the mouse was taken off the hot plate and placed back in the cage. The latency to lick was scored post-hoc using the recorded videos by a blinded observer.
Chemotherapy-induced neuropathy was induced in mice by intraplantar injection of oxaliplatin into the left hind paw ([Deuis et al., 2013]; [MacDonald et al., 2021]). Oxaliplatin was made up to a dose of 80 μg in 40 μl of 5% glucose solution, due to its instability in chloride-containing saline solution. The number of nocifensive behaviors in 5 mins was assessed on the Cold Plate held at 10 °C 24 hours later.

Assay [13] in a line: LiCl conditioned taste aversion. The assay is classed as in vivo, mouse. The conditions noted are these: lithium chloride 200 mg/kg injection paired with 15 mM saccharin; WT n=7, DKO n=6. The method, then: Mice were single-housed and habituated for 3 days to drink from two glass bottles with stainless-steel ball-bearing spouts. Mice then received 3 days of training, where they were water-deprived for 22 hours followed by 30 mins exposure to a single water-containing bottle, then 90 mins exposure to both bottles. On the conditioning day, after 22 hours of water deprivation, mice were exposed to a single bottle containing saccharin water (15 mM) for 45 mins. Mice were then injected with lithium chloride (200 mg/kg) or PBS, and then given ordinary water for 75 mins. The animals were then water deprived for a further 22 hours. On the test day, mice were simultaneously exposed to a bottle containing water and a bottle containing saccharin for 45 mins. The volume of each solution consumed was measured by weighing the bottles before and after. To calculate the saccharin preference index of each animal, the volume of saccharin consumed was divided by the total of fluid consumed, with a value less than 0.5 indicating the development of an aversion to saccharin. […]
bioRxiv preprint doi: https://doi.org/10.1101/2023.11.15.567208; this version posted December 2, 2024. […]
Figure 2 – f igure supplement 2. Tac1::Calca DKO mice develop LiCl-induced conditioned taste aversion (A) Quantification of conditioned taste aversion (CT A) test in W T (blue ) and DKO (red) mice. […]

T2 sequence (P30548 whole entry): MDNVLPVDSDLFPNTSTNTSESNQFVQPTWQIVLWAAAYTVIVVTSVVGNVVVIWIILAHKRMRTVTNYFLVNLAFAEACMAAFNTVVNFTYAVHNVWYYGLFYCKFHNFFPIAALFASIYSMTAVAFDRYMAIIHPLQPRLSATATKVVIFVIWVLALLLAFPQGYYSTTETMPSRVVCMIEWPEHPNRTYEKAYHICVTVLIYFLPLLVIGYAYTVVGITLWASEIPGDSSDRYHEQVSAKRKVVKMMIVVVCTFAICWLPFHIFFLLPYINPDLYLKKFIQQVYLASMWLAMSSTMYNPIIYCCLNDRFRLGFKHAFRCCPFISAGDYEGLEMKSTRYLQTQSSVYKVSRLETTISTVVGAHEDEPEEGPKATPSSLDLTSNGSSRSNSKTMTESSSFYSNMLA
T1 sequence (Q9R1W5 23-463): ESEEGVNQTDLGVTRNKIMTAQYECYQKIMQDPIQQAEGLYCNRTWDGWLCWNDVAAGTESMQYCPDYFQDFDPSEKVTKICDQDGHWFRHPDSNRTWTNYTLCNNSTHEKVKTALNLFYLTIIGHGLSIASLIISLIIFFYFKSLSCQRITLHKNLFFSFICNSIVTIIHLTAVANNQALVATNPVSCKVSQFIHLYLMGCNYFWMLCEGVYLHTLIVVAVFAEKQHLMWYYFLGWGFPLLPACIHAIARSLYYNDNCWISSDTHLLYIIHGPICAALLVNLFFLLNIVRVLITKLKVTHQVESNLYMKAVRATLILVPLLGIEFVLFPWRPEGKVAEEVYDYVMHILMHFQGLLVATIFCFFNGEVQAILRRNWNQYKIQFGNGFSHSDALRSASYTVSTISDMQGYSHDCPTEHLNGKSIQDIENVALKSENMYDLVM
T1 sequence (Q9WTJ5 27-148): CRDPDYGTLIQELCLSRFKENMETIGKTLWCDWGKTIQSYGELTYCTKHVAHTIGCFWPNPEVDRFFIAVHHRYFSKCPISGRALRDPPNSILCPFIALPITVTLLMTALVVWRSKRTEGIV

Consider `CC(C)=O` [acetone], for which the “Cold response evoked by acetone” value in [1] was “the same between groups”.

Consider `CCN(CC)CCCC(C)Nc1ccnc2cc(Cl)ccc12` (centres unmarked) [chloroquine], for which the Scratching result in assay [2] is recorded as “DKO mice scratched robustly following intradermal chloroquine injection, a response indistinguishable from WT animals”.

On to `CCCCC[C@H](O)/C=C/[C@H]1[C@H](O)CC(=O)[C@@H]1C/C=C\CCCC(=O)O` [PGE2, Prostaglandin E2], for which, in assay [3], the “Swelling of the hindpaw” value is recorded as “provoked swelling of the hindpaw of DKO mice to a similar extent as WT mice”. Besides, in assay [4] (post-hoc Sidak's test, WT n=10, DKO n=10), the “WT vs DKO difference in Hargreaves latency after PGE2, post-hoc” value was “only the 120 min time-point shows a significant difference (p=0.025)”. Moreover, the “Heat and mechanical hypersensitivity, PGE2” value in [4] (up to 120 min, Hargreaves (n=10 each) and von Frey (n=6 each)) is “short-lasting heat and mechanical hypersensitivity to a similar extent in both WT and DKO mice”.

In the case of `CC(=O)O` [acetic acid], the Writhing behavior result in assay [5] was “comparable writhing behavior in both WT and DKO mice”.

For `COc1cc(CNC(=O)CCCC/C=C/C(C)C)ccc1O` [capsaicin], in [3], the “Swelling of the hindpaw” value is recorded as “provoked swelling of the hindpaw of DKO mice to a similar extent as WT mice”. Moreover, the “Paw oedema (paw volume)” value in assay [3] was “both WT and DKO mice show paw swelling; also recorded: no appreciable differences in capsaicin-induced swelling between WT and DKO mice”. Besides, the “CGRP-sniffer calcium response, WT DRG” value in assay [6] was “strong increases in calcium”; in assay [6] (listed as Capsaicin), “increase in CGRP-sniffer GCaMP6s fluorescence”. Moreover, the “Substance P-sniffer GCaMP response, DKO DRG” value in [7] (co-culture with DKO DRG neurons) was “no Substance P-sniffer cell responses”. In addition, the figures for the “Substance P-sniffer GCaMP response, WT DRG” value in assay [7] and in assay [7] (listed as Capsaicin) were “robust GCaMP responses” and “increase in Substance P-sniffer GCaMP6s fluorescence”, respectively. The “Dorsal horn Fos expression, capsaicin-evoked” value in assay [8] is “No differences in dorsal horn Fos expression were observed”. Also, in [9], the Plasma extravasation entry was “both WT and DKO mice show paw swelling and plasma extravasation; also recorded: plasma extravasation was intact in DKO mice”. Moreover, the “Licking behavior, capsaicin” value in assay [10] (0.3% capsaicin, WT n=9, DKO n=8) was “evoked coping-like licking responses in both genotypes, however responses were variable and although decreased licking was observed in some DKO mice, differences did not reach statistical significance”.

Take `O=C1[O][Pt]2([NH][C@@H]3CCCC[C@H]3[NH]2)[O]C1=O` [oxaliplatin]: the “Cold allodynia (literature)” value in [11] was “evokes extreme cold allodynia”. In addition, in [12], the “Cold allodynia, pain-like behaviors” value is given as “pronounced pain-like behaviors”.

`[Cl-].[Li+]` [LiCl, lithium chloride]: the “Conditioned taste aversion (saccharin preference)” value in assay [13] is “pr onoun ced; also recorded: strong and indistinguishable conditioned taste aversion in both WT and DKO mice”.

In the case of `C=CCN=C=S` [AITC, allyl isothiocyanate], in assay [3], the “Swelling of the hindpaw” value is given as “provoked swelling of the hindpaw of DKO mice to a similar extent as WT mice”; the “Paw oedema (paw volume)” value is “both WT and DKO mice show paw swelling”. Besides, the Plasma extravasation result in assay [9] was “both WT and DKO mice show paw swelling and plasma extravasation”. For the same compound, the “Licking behavior, AITC” value in [10] (1% AITC in saline, WT n=12, DKO n=12) was “evoked similar licking behavior to capsaicin that was unaffected by peptide deletion”.
